Results published in patent US7964598B2 (The J. David Gladstone Institutes, priority 1995, dated 2011).
“And” between values parts separate entries of the source, which are not always exact repeats. Equal values may be shown once.

How the values were obtained:
[1] = tested on: HepG2 cells; assay: Cell association of 125I-apoE-enriched β-VLDL by HepG2 cells; assay type: cell-based, human
[2] = tested on: B103-APP cells; assay: APP processing and Aβ production, B103-APP cells; assay type: cell-based, rat; conditions: lipid-free apoE, 7.5 μg/ml, 24 h, compared to medium alone
Method: Aβ production assay. Stable neuroblastoma B103 cell lines transfected with a wildtype hAPP cDNA construct (B 103-APP) were selected by growing them in Dulbecco's modified Eagle's medium (DMEM) containing 10% fetal calf serum (FBS) and 400 μg/ml G418. A cell line expressing APP at similar levels in mouse brains has been identified by RNase protection assay (RPA) and was used in the studies described below. To determine Aβ production, B103-APP cells were incubated with serum-free minimal essential medium (MEM) containing N2 supplements with or without apoE isoforms for 24 h at 37° C. After incubation, 50 μl of medium was collected and assayed for Aβ levels with an ELISA method. The cells were lysed, and cellular proteins were determined by the Lowry method. AP production was normalized to cellular protein.
Cell Culture. Rat neuroblastoma B103 cells stably expressing human wildtype APP (hAPP695wt) (Xu et al. ((1999) Proc. Natl. Acad. Sci. USA 96:7547-7552; Esposito, et al. (2004) J. Neurochem. 91:1260-1274) were generated in Dr. Lennart Mucke's laboratory at the Gladstone Institute of Neurological Disease and maintained in Dulbecco's modified Eagle's medium (DMEM) (GIBCO, Grand Island, N.Y.) containing 400 μg/ml G418, 10% fetal bovine serum, and 5% horse serum at 37° C. Twenty-four hours after plating into 48-well plates (1×10^5 cells per well), cells were washed twice with serum-free DMEM and cultured for another 24 h in DMEM containing 1% N-2 supplement (GIBCO) to induce differentiation. The cells were treated with either β-VLDL (25 μg/ml cholesterol), recombinant human apoE isoform-enriched β-VLDL (7.5 μg/ml apoE and 25 μg/ml cholesterol), or recombinant human apoE (7.5 μg/ml apoE) in fresh DMEM containing 1% N-2 supplement for an additional 24 h. In some experiments, RAP (25 nM or 1 μM) was added to the cells 1 h before apoE treatment.
In some experiments, cells were treated with lovastatin, as described but with a minor modification. Fassbender et al. (2001) Proc. Natl. Acad. Sci. USA 98:5856-5861. Briefly, cells were maintained in differentiation medium containing 4 μM lovastatin and 0.25 mM mevalonate for 24 h. After treatment for 5 min with 5 mM methyl-β-cyclodextrin, which depletes cell membrane cholesterol (Bodovitz and Klein (1996) J. Biol. Chem. 271:4436-4440; Kojro et al. (2001) Proc. Natl. Acad. Sci. USA 98:5815-5820), the cells were incubated in fresh differentiation medium containing lovastatin and mevalonate for 24 h. The conditioned medium was collected, and cellular cholesterol extracted with chloroform/methanol (Huang et al. (1994) Proc. Natl. Acad. Sci. USA 91:1834-1838) and quantitated with a kit from Abbott Laboratories (Abbott Park, Ill.).
Detection of sAPPα. Media conditioned for 24 hours were normalized by protein content and subjected to SDS/PAGE. Proteins were then transferred onto nitrocellulose membranes. The sAPPα was detected by mAb 6E10 and visualized with an enhanced chemiluminescence system (Pierce, Rockford, Ill.).
Aβ Assay. Aβ secreted into the medium was detected with a sandwich enzyme-linked immunosorbent assay (ELISA), using mAb 266 as a capturing antibody and 3D6 as a detecting antibody, as described. Johnson-Wood et al. ((1997) Proc. Natl. Acad. Sci. USA 94:1550-1555). Aβ was quantified from a standard curve (Aβ42; Bachem, Torrance, Calif.) and normalized by total cellular protein.

[3] = tested on: emulsion particles; assay: Control emulsion binding assays without compounds; conditions: n = 9; no compound
Method: Preparation of emulsion particles. Triolein (160 mg) and L-alpha-Phosphatidylcholine (40 mg) are combined and dried under nitrogen. After the addition of 8 mls of buffer (10 mM Tris, 100 mM KCl, 1 mM EDTA, pH 8.0), the mixture is sonicated in a water bath to obtain a heterogeneous mix of emulsion particles. The particles are harvested by ultracentrifugation (TLA 100.2 rotor, 30,000 rpm for 30 minutes) and the subsequent lipid cake is removed by tube slicing and resuspended in 100 μt 20 mM Phosphate Buffer (PB). Triolein and phospholipid content are measured and total emulsion particle concentration is determined.
Radiolabelling Freshly denatured and renatured Apolipoprotein E3 and E4 are radiolabelled using Bolton-Hunter Reagent [^125I] (ICN). Specific Activity is determined using Lowry method and Gamma 8000 counter.
Binding Affinity Assay. […] In glass tubes, 25 μg of protein (with iodinated tracer) was reduced with 1% β-mercaptoethanol. Two hundred and fifty μg of emulsion particles and 2.5 μl of compound (10 mM stock) were added and the final mixture was brought up to 250 μl with 20 mM phosphate buffer (PB). The reaction mixture was then incubated in a 37° C. water bath for 2 hours before being transferred to 1.5 ml ultracentrifuge tubes. Finally, 50 μl of 60% sucrose was mixed with the sample and 400 μl 20 mM PB was carefully layered on top. Using a TLA 100.2 rotor, the tube was spun at 30,000 rpm for 30 minutes and subsequently cut to separate the floating emulsion particle layer from the free protein at the bottom of the tube. These fractions were then combined with the respective half of the actual tube and counted using a Gamma-8000.

[4] = tested on: B103-neo cells; assay: Cell association and degradation of 125I-Aβ40 by B103-neo cells; assay type: cell-based, rat; conditions: 125I-Aβ1-40 350 pg/ml with apoE, 24-h incubation
Method: Cell Association and Degradation of ^125I-Aβ40 by Neo-transfected B103 Cells. […] Culture medium was collected after 24 h, and the degradation products of ^125I-Aβ40 in the medium were assayed as described. Goldstein et al al. ((1983) Methods Enzymol. 98:241-250). The cells were washed five times on ice with phosphate-buffered saline (PBS) containing 0.2% bovine serum albumin and once with PBS and lysed by 0.1 N NaOH. The cell-associated ^125I-Aβ40 was determined by counting the radioactivity in the cell lysate.
The cell association and degradation of Aβ were measured after a 24-h incubation, as described in Methods, above.

Mean % bound [3]	Mean % free [3]	Median % bound [3]	Median % free [3]	Range % bound [3]	Range % free [3]	Substance	cell association ([1]; 4 hours)	cell association ([1]; 8 hours)	increase of Aβ production [2]	Cell association of 125I-Aβ1-40 [4]	Degradation of 125I-Aβ1-40 [4]
29.8%	70.2%	33%	67%	20-39%	61-81%	apoE3: human apolipoprotein E3 isoform, also iodinated	1062 ± 171 ng/mg cell protein	1466 ± 38 ng/mg cell protein	30%	10.8 ± 2.5 fmol/mg cell protein	88.0 ± 6.7 fmol/mg cell protein
59.4%	40.6%	60%	40%		30-50%	apoE4: human apolipoprotein E4 isoform, also iodinated	51 ± 10 ng/mg cell protein	683 ± 6 ng/mg cell protein	~70% and ~60%	14.7 ± 2.5 fmol/mg cell protein	80.8 ± 22.9 fmol/mg cell protein
